Laboratory results reported in patent US20250075209A1, “RNAS FOR COMPLEMENT INHIBITION” (Apellis Pharmaceuticals, Inc., priority 2021, published 2025).
Oligonucleotides are written 5' to 3', each unit as a sugar letter and its base; * is a phosphorothioate linkage, no mark a phosphodiester; rarer units and linkages stand in square brackets, end groups in braces. Plain capitals give the bases only. [ ]: non-standard residue; d: D form. 1Nal = N[C@@H](Cc1cccc2ccccc12)C(=O)O; 2Nal = N[C@@H](Cc1ccc2ccccc2c1)C(=O)O; Igl = N[C@H](C(=O)O)C1Cc2ccccc2C1; m = 2'-O-methyl; f = 2'-fluoro

Experiments:
[1] = system: factor B mRNA transcript; test: Knockdown of factor B expression in HepG2 cells using siRNAs, dose response experiments (DRC); type: cell-based, human; conditions: for Max Factor B inhibition (%): dose response up to 100 nM
Experimental: HepG2 cells were obtained from ATCC (ATCC in partnership with LGC Standards, Wesel, Germany, cat. #ATCC-HB-8065) and cultured in MEM Eagle (#M2279, Sigma-Aldrich, Germany), supplemented to contain 10% fetal calf serum (#1248D, Biochrom GmbH, Berlin, Germany), 1×non-essential amino acids (#K0293; Biochrom, Berlin, Germany), 4 mM L-Glutamine (#K0283, Biochrom, Berlin, Germany) and 100 U/ml Penicillin/100 μg/ml Streptomycin (#A2213, Biochrom GmbH, Berlin, Germany) at 37° C. in an atmosphere with 5% CO2 in a humidified incubator.
24 siRNAs were designed and synthesized to target different regions of the factor B mRNA transcript. In this experiment, the sense strand of each siRNA contained 18 nucleotides identical to a target region sequence on the factor B transcript (SEQ ID NO: 75), and one additional adenine nucleotide at the 3′ end. Additionally, in this experiment, the antisense strand contained 18 nucleotides complementary to a target region sequence on the factor B transcript (SEQ ID NO: 75), and one additional uracil nucleotide at the 5′ end, and 2 additional uracil nucleotides at the 3′ end.
Transfection of siRNA was carried out with Lipofectamine RNAiMax (Invitrogen/Life Technologies, Karlsruhe, Germany) according to manufacturer's instructions for reverse transfection.
Each siRNA was tested using dose response experiments (DRC) in HepG2 cells. Dose-response experiments were done with siRNA in 10 concentrations transfected in quadruplicates, starting at 100 nM in 6-fold dilutions steps down to ˜10 fM. Mock transfected cells served as negative controls.
For each well, the target mRNA level was normalized to the respective GAPDH mRNA level. The activity of a given siRNA was expressed as percent mRNA concentration of the respective target (normalized to GAPDH mRNA) in treated cells, relative to the target mRNA concentration (normalized to GAPDH mRNA) averaged across mock transfected wells (DRCs).
Dose response experiments described above were repeated in a subset of siRNAs shown in Table 9, specifically siRNAs 2, 7, 8, and 3.

[2] = system: complement activation; conditions: relative to compstatin amidated at the C-terminus; based on published data (WO2004/026328, WO2007044668, Mallik 2005, Katragadda 2006); cited from earlier work
[3] = reverse transfection, 10 concentrations from 100 nM in 6-fold dilutions, factor B mRNA normalized to GAPDH, relative to mock, Table 8
[4] = additional (repeated) dose response experiments, Table 10

Substance	Max Factor B inhibition (%) ([1]; Table 8)	IC20 [1, 3]	IC50 [1, 3]	IC80 [1, 3]	IC20 [1, 4]	IC50 [1, 4]	IC80 [1, 4]	Max KD [%] [1, 4]	Activity over compstatin [2]
1 (sense mC*mC*fUmAmCmUfAfCfAmAmUfGmUmGmAmGfUmGmA; antisense mU*fC*mAmCmUmCmAmCmAmUmUmGmUfAmGmUmAmGmG*mU*mU; siRNA) [compound 1]	91.04%	0.03 nM	0.54 nM	19.8 nM					
2 (sense mC*mU*fUmCmUmGfGfCfUmUmCfUmAmCmCmCfGmUmA; antisense mU*fA*mCmGmGmGmUmAmGmAmAmGmCfCmAmGmAmAmG*mU*mU; siRNA) [compound 2]	90.18%			7.07 nM	0.021 nM	0.0887 nM	0.865 nM	83.5%	
3 (sense mU*mU*fCmUmGmGfCfUfUmCmUfAmCmCmCmGfUmAmA; antisense mU*fU*mAmCmGmGmGmUmAmGmAmAmGfCmCmAmGmAmA*mU*mU; siRNA) [compound 3]	89.76%	0.02 nM	0.29 nM	12 nM	0.0722 nM	0.204 nM	0.886 nM	87%	
4 (sense mC*mU*fGmCmUmAfUfGfAmCmGfGmUmUmAmCfAmCmA; antisense mU*fG*mUmGmUmAmAmCmCmGmUmCmAfUmAmGmCmAmG*mU*mU; siRNA) [compound 4]	88.29%	0.05 nM	0.48 nM	10.9 nM					
5 (sense mG*mG*fGmGmAmGfUfAfGmUmGfGmAmUmGmUfCmUmA; antisense mU*fA*mGmAmCmAmUmCmCmAmCmUmAfCmUmCmCmCmC*mU*mU; siRNA) [compound 5]	86.90%	0.1 nM	0.67 nM	9.65 nM					
6 (sense mU*mG*fUmGmGmUfGfUfCmUmGfAmGmUmAmCfUmUmA; antisense mU*fA*mAmGmUmAmCmUmCmAmGmAmCfAmCmCmAmCmA*mU*mU; siRNA) [compound 6]	85.34%	0.03 nM	0.37 nM	16.1 nM					
7 (sense mU*mA*fCmGmUmGfUfGfUmCmCfUmUmCmUmGfGmCmA; antisense mU*fG*mCmCmAmGmAmAmGmGmAmCmAfCmAmCmGmUmA*mU*mU; siRNA) [compound 7]	82.44%		0.02 nM	670 nM	0.026 nM	0.103 nM	0.868 nM	83.5%	
8 (sense mA*mA*fGmUmGmUfCfUfAmGmUfCmAmAmCmUfUmAmA; antisense mU*fU*mAmAmGmUmUmGmAmCmUmAmGfAmCmAmCmUmU*mU*mU; siRNA) [compound 8]	82.24%		0.16 nM	717 nM	0.0889 nM	0.271 nM		76.2%	
9 (sense mC*mU*fAmUmGmAfCfGfUmUmGfCmCmCmUmGfAmUmA; antisense mU*fA*mUmCmAmGmGmGmCmAmAmCmGfUmCmAmUmAmG*mU*mU; siRNA) [compound 9]	82.07%	0.01 nM	0.27 nM	142 nM					
10 (sense mC*mU*fCmGmGmUfUfCfCmUmUfUmGmUmAmCfUmGmA; antisense mU*fC*mAmGmUmAmCmAmAmAmGmGmAfAmCmCmGmAmG*mU*mU; siRNA) [compound 10]	81.72%	0.43 nM	1.7 nM	31.6 nM					
11 (sense mA*mC*fCmAmUmAfGfAfAmGmGfAmGmUmCmGfAmUmA; antisense mU*fA*mUmCmGmAmCmUmCmCmUmUmCfUmAmUmGmGmU*mU*mU; siRNA) [compound 11]	81.08%	0.01 nM	0.26 nM	2350 nM					
12 (sense mG*mG*fAmUmUmAfUfCfUmGmGfAmUmGmUmCfUmAmA; antisense mU*fU*mAmGmAmCmAmUmCmCmAmGmAfUmAmAmUmCmC*mU*mU; siRNA) [compound 12]	80.54%	0.13 nM	0.89 nM	183 nM					
13 (sense mA*mC*fGmUmUmGfCfCfCmUmGfAmUmCmAmAfGmCmA; antisense mU*fG*mCmUmUmGmAmUmCmAmGmGmGfCmAmAmCmGmU*mU*mU; siRNA) [compound 13]	80.41%	0.06 nM	0.69 nM	1340 nM					
14 (sense mG*mG*fAmGmCmCfAfAfAmAmAfGmUmGmUmCfUmAmA; antisense mU*fU*mAmGmAmCmAmCmUmUmUmUmUfGmGmCmUmCmC*mU*mU; siRNA) [compound 14]	79.20%	0.22 nM	1.3 nM						
15 (sense mC*mC*fGmAmUmUfAfCfCmAmCfAmAmGmCmAfAmCmA; antisense mU*fG*mUmUmGmCmUmUmGmUmGmGmUfAmAmUmCmGmG*mU*mU; siRNA) [compound 15]	78.63%	1.7 nM	6.31 nM						
16 (sense mA*mA*fUmGmCmAfGfAfCmUmGfGmGmUmCmAfCmGmA; antisense mU*fC*mGmUmGmAmCmCmCmAmGmUmCfUmGmCmAmUmU*mU*mU; siRNA) [compound 16]	77.05%	0.01 nM	0.3 nM						
17 (sense mC*mU*fCmAmCmGfCfCfCmGmAfGmAmCmUmUfUmCmA; antisense mU*fG*mAmAmAmGmUmCmUmCmGmGmGfCmGmUmGmAmG*mU*mU; siRNA) [compound 17]	75.50%	0.07 nM	0.85 nM						
18 (sense mC*mA*fGmCmGmAfUfCfUmGmUfGmAmCmAmAfCmGmA; antisense mU*fC*mGmUmUmGmUmCmAmCmAmGmAfUmCmGmCmUmG*mU*mU; siRNA) [compound 18]	75.45%	0.3 nM	2.02 nM						
19 (sense mC*mU*fAmCmCmAfCfUfUmGmCfCmAmGmCmAfAmCmA; antisense mU*fG*mUmUmGmCmUmGmGmCmAmAmGfUmGmGmUmAmG*mU*mU; siRNA) [compound 19]	74.03%	0.16 nM	1.12 nM						
20 (sense mU*mU*fUmAmUmGfAfCfUmAmUfGmAmCmGmUfUmGmA; antisense mU*fC*mAmAmCmGmUmCmAmUmAmGmUfCmAmUmAmAmA*mU*mU; siRNA) [compound 20]	74.02%	1.1 nM	3.52 nM						
21 (sense mC*mC*fUmUmGmAfUfAfGmUmUfCmAmCmAmAfGmAmA; antisense mU*fU*mCmUmUmGmUmGmAmAmCmUmAfUmCmAmAmGmG*mU*mU; siRNA) [compound 21]	72.43%	0.12 nM	1.63 nM						
22 (sense mC*mU*fCmAmAmGfAfGfGmUmGfGmCmCmGmAfAmGmA; antisense mU*fC*mUmUmCmGmGmCmCmAmCmCmUfCmUmUmGmAmG*mU*mU; siRNA) [compound 22]	72.01%	0.32 nM	2.09 nM						
23 (sense mU*mU*fUmUmAmUfGfAfCmUmAfUmGmAmCmGfUmUmA; antisense mU*fA*mAmCmGmUmCmAmUmAmGmUmCfAmUmAmAmAmA*mU*mU; siRNA) [compound 23]	68.74%	0.22 nM	2.44 nM						
24 (sense mU*mU*fCmCmGmAfCfUfUmCmUfCmCmAmAmGfAmGmA; antisense mU*fC*mUmCmUmUmGmGmAmGmAmAmGfUmCmGmGmAmA*mU*mU; siRNA) [compound 24]	61.56%	0.51 nM	2.76 nM						
Ac-ICV(1-Nal)QDWGAHRCT-COOH (Ac-ICV[1Nal]QDWGAHRCT-OH; not fully specified (bridges); printed as Ac-ICV(1-Nal)QDWGAHRCT-COOH; cysteine pairing not given here) [Ac V4(1-Nal)/H9A-OH]									30xmore
Ac-ICV(2-Igl)QDWGAHRCT-CONH2 (Ac-ICV[Igl]QDWGAHRCT-NH2; not fully specified (bridges); printed as Ac-ICV(2-Igl)QDWGAHRCT-CONH2; cysteine pairing not given here) [Ac-V42Igl/H9A]									39xmore
Ac-ICV(2-Igl)QDWGAHRCT-COOH (Ac-ICV[Igl]QDWGAHRCT-OH; not fully specified (bridges); printed as Ac-ICV(2-Igl)QDWGAHRCT-COOH; cysteine pairing not given here) [Ac-V42Igl/H9A-OH]									37xmore
Ac-ICV(2-Nal)CQDWGAHRCT-ONH2 (Ac-ICV[2Nal]QDWGAHRCT-NH2; ends and bridges not checked) [Ac-V4(2-Nal)/H9A]									99xmore
